Test results as given in article PMC5605198, “MELK is not necessary for the proliferation of basal-like breast cancer cells” (eLife, 2017).
Like-named read-outs stand apart in the source and are kept apart here.

Columns and labels:
[1] = biological target: CK1 gamma 2 (Homo sapiens, UniProt P78368); assay: ICKP radiometric kinase assay; format: biochemical; details: read-out: % AR (% kinase activity remaining)
[2] = tested on: HCC70; assay: Cell proliferation assay (CellTiter-Glo); details: Homo sapiens
[3] = biological target: TTK (Homo sapiens, UniProt P33981); assay: ICKP radiometric kinase assay; format: biochemical; details: read-out: % AR (% kinase activity remaining)
[4] = biological target: CSK (Homo sapiens, UniProt P41240); assay: ICKP radiometric kinase assay; format: biochemical; details: read-out: % AR (% kinase activity remaining)
[5] = biological target: TGFBR1 (Homo sapiens, UniProt P36897); assay: ICKP radiometric kinase assay; format: biochemical; details: read-out: % AR (% kinase activity remaining)
[6] = tested on: panel of breast cancer cell lines; assay: 3-day proliferation assays, panel summary; format: cell-based
Text: As shRNA-mediated knockdown of MELK was previously reported to inhibit the proliferation of BBC cells, we next tested whether pharmacological inhibition of MELK would have similar effects. We treated a panel of breast cancer cell lines, including MDA-MB-468 and ZR-75-1 cells, with HTH-01-091 and other MELK inhibitors; despite our focus on basal-like breast cancers, we included luminal cell lines for comparison. […] We evaluated the inhibitors in longer-term (7-day) proliferation assays and still observed the same trend, and no clear difference between the breast cancer subtypes (Table 4). We authenticated our MDA-MB-468 line by short tandem repeat analysis, and repeated the proliferation assays using MDA-MB-468 cells from a second source to confirm the modest antiproliferative effects of the selective inhibitors (Table 4).

[7] = biological target: EF2K (Homo sapiens, UniProt O00418); assay: ICKP radiometric kinase assay; format: biochemical; details: read-out: % AR (% kinase activity remaining)
[8] = biological target: EPH-A4 (Homo sapiens, UniProt P54764); assay: ICKP radiometric kinase assay; format: biochemical; details: read-out: % AR (% kinase activity remaining)
[9] = biological target: PKD1 (Homo sapiens, UniProt Q15139); assay: ICKP radiometric kinase assay; format: biochemical; details: read-out: % AR (% kinase activity remaining)
[10] = biological target: SmMLCK (Homo sapiens, UniProt Q15746); assay: ICKP radiometric kinase assay; format: biochemical; details: for remaining activity at 1 µM: read-out: % AR (% kinase activity remaining)
[11] = biological target: PIK3CA (Homo sapiens, UniProt P42336); assay: Adapta kinase assay; details: Adapta assay at [ATP]=apparent Km; read-out: Biochemical IC50 PIK3CA
[12] = biological target: RSK2 (Homo sapiens, UniProt P51812); assay: ICKP radiometric kinase assay; format: biochemical; details: read-out: % AR (% kinase activity remaining)
[13] = biological target: IRAK4 (Homo sapiens, UniProt Q9NWZ3); assay: ICKP radiometric kinase assay; format: biochemical; details: read-out: % AR (% kinase activity remaining)
[14] = tested on: AMPK (hum); assay: ICKP radiometric kinase assay; format: biochemical, human; details: 1 μM
[15] = biological target: MKK1 (Homo sapiens, UniProt Q02750); assay: ICKP radiometric kinase assay; format: biochemical; details: read-out: % AR (% kinase activity remaining)
[16] = biological target: TLK1 (Homo sapiens, UniProt Q9UKI8); assay: ICKP radiometric kinase assay; format: biochemical; details: read-out: % AR (% kinase activity remaining)
TLK1, sequence (Q9UKI8 whole entry): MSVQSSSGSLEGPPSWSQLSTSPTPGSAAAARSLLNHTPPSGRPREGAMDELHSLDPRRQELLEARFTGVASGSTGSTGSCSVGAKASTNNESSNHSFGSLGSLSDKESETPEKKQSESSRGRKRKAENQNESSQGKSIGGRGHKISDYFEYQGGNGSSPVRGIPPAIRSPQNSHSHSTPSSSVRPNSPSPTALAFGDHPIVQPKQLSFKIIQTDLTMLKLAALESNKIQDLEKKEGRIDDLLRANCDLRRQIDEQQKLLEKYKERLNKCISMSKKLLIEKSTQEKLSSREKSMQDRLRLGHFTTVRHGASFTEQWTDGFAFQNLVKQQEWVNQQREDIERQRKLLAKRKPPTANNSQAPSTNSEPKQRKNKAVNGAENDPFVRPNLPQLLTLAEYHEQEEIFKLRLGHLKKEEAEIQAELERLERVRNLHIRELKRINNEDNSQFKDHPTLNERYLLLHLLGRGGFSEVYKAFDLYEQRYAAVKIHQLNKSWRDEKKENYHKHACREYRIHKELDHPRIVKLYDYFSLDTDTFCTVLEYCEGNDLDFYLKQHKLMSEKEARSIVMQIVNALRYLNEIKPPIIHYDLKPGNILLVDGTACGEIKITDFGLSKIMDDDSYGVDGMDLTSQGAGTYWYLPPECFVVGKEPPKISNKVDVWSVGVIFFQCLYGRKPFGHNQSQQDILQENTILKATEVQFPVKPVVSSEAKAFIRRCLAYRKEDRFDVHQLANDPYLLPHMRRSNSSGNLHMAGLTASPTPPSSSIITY

[17] = biological target: HER4 (Homo sapiens, UniProt Q15303); assay: ICKP radiometric kinase assay; format: biochemical; details: read-out: % AR (% kinase activity remaining)
HER4, sequence (Q15303 26-1308): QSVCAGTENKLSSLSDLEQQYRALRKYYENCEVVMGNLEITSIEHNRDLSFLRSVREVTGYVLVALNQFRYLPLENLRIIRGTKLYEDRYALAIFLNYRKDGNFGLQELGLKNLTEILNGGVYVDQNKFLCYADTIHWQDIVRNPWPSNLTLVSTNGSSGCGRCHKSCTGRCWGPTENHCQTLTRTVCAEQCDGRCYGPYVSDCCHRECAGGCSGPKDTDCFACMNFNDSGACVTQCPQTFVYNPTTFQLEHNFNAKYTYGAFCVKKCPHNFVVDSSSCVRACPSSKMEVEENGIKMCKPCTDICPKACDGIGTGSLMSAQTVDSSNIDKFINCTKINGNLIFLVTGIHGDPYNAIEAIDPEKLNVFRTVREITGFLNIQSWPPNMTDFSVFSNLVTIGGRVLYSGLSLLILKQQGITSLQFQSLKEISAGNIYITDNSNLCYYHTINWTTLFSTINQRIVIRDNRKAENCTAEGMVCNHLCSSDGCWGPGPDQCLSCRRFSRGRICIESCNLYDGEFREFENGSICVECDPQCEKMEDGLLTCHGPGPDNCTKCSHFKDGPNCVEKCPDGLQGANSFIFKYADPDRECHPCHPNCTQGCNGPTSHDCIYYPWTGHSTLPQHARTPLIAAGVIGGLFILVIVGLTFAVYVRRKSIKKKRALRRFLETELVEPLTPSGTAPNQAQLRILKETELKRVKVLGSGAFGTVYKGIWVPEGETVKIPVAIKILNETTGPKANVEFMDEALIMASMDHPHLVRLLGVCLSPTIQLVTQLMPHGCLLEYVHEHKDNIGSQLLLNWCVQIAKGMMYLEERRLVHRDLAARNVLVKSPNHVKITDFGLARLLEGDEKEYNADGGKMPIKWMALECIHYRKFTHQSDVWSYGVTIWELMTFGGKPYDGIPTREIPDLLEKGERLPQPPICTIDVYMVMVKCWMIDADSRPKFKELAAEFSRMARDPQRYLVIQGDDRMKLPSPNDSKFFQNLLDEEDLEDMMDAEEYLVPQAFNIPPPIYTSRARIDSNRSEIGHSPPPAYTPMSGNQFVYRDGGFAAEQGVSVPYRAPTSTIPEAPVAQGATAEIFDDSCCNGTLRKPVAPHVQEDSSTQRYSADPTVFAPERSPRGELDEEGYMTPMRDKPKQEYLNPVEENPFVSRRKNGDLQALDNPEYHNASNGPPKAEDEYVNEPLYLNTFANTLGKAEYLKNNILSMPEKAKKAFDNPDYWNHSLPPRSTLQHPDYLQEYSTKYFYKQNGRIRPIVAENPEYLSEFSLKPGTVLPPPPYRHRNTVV

[18] = biological target: S6K1 (Homo sapiens, UniProt P23443); assay: ICKP radiometric kinase assay; format: biochemical; details: read-out: % AR (% kinase activity remaining)
[19] = biological target: PIM2 (Homo sapiens, UniProt Q9P1W9); assay: ICKP radiometric kinase assay; format: biochemical; details: read-out: % AR (% kinase activity remaining)
[20] = biological target: TAO1 (Homo sapiens, UniProt Q7L7X3); assay: ICKP radiometric kinase assay; format: biochemical; details: read-out: % AR (% kinase activity remaining)
[21] = biological target: CDK9-Cyclin T1 (Homo sapiens, UniProt P50750); assay: ICKP radiometric kinase assay; format: biochemical; details: read-out: % AR (% kinase activity remaining)
[22] = biological target: MKK6 (Homo sapiens, UniProt P52564); assay: ICKP radiometric kinase assay; format: biochemical; details: read-out: % AR (% kinase activity remaining)
[23] = biological target: LKB1 (Homo sapiens, UniProt Q15831); assay: ICKP radiometric kinase assay; format: biochemical; details: read-out: % AR (% kinase activity remaining)
[24] = biological target: TrkA (Homo sapiens, UniProt P04629); assay: ICKP radiometric kinase assay; format: biochemical; details: read-out: % AR (% kinase activity remaining)
[25] = biological target: PAK5 (Homo sapiens, UniProt Q9P286); assay: ICKP radiometric kinase assay; format: biochemical; details: read-out: % AR (% kinase activity remaining)
[26] = biological target: EPH-B1 (Homo sapiens, UniProt P54762); assay: ICKP radiometric kinase assay; format: biochemical; details: read-out: % AR (% kinase activity remaining)
[27] = biological target: MARK1 (Homo sapiens, UniProt Q9P0L2); assay: ICKP radiometric kinase assay; format: biochemical; details: read-out: % AR (% kinase activity remaining)
[28] = biological target: SIK3 (Homo sapiens, UniProt Q9Y2K2); assay: ICKP radiometric kinase assay; format: biochemical; details: read-out: % AR (% kinase activity remaining)
[29] = biological target: ULK2 (Homo sapiens, UniProt Q8IYT8); assay: ICKP radiometric kinase assay; format: biochemical; details: read-out: % AR (% kinase activity remaining)
[30] = biological target: TSSK1 (Homo sapiens, UniProt Q9BXA7); assay: ICKP radiometric kinase assay; format: biochemical; details: read-out: % AR (% kinase activity remaining)
TSSK1, sequence (Q9BXA7 whole entry): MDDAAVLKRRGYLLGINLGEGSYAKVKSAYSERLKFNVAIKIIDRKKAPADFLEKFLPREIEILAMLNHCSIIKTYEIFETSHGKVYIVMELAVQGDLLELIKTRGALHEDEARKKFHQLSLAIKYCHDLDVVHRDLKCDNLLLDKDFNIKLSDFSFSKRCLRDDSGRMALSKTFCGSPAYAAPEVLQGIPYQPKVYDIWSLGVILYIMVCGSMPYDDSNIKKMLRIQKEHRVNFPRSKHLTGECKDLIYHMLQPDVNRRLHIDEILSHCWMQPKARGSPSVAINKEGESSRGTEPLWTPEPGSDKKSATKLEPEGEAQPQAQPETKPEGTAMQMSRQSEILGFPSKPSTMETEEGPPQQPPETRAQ

[31] = biological target: TESK1 (Homo sapiens, UniProt Q15569); assay: ICKP radiometric kinase assay; format: biochemical; details: read-out: % AR (% kinase activity remaining)
[32] = biological target: CHK2 (Homo sapiens, UniProt O96017); assay: ICKP radiometric kinase assay; format: biochemical; details: read-out: % AR (% kinase activity remaining)
[33] = biological target: PKC zeta (Homo sapiens, UniProt Q05513); assay: ICKP radiometric kinase assay; format: biochemical; details: read-out: % AR (% kinase activity remaining)
[34] = tested on: MDA-MB-468 (second source); assay: Cell proliferation assay (CellTiter-Glo); details: Homo sapiens, MDA-MB-468, 168 h, read-out: 7-day antiproliferative IC50
[35] = biological target: MLK1 (Homo sapiens, UniProt P80192); assay: ICKP radiometric kinase assay; format: biochemical; details: read-out: % AR (% kinase activity remaining)
[36] = biological target: IGF-1R (Homo sapiens, UniProt P08069); assay: ICKP radiometric kinase assay; format: biochemical; details: read-out: % AR (% kinase activity remaining)
IGF-1R, sequence (P08069 31-1367): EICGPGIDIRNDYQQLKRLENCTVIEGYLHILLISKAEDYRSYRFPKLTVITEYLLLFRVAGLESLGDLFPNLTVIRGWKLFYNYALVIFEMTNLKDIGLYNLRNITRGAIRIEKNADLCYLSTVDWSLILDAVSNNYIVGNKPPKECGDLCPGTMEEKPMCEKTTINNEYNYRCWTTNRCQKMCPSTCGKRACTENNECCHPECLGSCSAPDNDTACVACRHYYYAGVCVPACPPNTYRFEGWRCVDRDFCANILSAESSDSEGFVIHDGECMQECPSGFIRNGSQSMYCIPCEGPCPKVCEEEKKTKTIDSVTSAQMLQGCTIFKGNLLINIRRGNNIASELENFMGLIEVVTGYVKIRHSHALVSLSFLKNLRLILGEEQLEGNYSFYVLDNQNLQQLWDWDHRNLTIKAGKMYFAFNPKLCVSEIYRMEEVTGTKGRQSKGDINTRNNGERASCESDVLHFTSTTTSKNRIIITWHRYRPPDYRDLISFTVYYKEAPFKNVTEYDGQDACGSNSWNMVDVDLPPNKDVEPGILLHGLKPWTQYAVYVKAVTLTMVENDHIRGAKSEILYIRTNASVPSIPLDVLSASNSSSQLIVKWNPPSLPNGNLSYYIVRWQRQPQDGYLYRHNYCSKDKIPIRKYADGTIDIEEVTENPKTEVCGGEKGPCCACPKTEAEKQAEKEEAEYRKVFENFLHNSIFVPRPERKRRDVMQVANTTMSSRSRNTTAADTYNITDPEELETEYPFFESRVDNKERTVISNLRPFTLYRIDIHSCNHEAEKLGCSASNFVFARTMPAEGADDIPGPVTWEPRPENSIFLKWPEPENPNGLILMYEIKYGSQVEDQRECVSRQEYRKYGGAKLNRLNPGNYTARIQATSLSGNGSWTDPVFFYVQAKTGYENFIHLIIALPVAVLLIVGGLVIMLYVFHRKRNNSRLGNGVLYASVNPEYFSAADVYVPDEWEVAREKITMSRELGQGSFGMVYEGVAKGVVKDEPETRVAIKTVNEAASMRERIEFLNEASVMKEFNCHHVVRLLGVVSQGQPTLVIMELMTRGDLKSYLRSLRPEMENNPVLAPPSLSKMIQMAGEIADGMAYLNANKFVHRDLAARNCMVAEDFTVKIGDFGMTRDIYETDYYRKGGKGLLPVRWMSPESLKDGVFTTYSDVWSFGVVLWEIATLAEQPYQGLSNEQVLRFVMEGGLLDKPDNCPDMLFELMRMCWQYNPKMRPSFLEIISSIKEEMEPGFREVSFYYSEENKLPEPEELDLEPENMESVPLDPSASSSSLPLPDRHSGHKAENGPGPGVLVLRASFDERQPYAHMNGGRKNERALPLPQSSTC

[37] = biological target: PRK2 (Homo sapiens, UniProt Q16513); assay: ICKP radiometric kinase assay; format: biochemical; details: read-out: % AR (% kinase activity remaining)
[38] = biological target: IRR (Homo sapiens, UniProt P14616); assay: ICKP radiometric kinase assay; format: biochemical; details: read-out: % AR (% kinase activity remaining)
IRR, sequence (P14616 27-1297): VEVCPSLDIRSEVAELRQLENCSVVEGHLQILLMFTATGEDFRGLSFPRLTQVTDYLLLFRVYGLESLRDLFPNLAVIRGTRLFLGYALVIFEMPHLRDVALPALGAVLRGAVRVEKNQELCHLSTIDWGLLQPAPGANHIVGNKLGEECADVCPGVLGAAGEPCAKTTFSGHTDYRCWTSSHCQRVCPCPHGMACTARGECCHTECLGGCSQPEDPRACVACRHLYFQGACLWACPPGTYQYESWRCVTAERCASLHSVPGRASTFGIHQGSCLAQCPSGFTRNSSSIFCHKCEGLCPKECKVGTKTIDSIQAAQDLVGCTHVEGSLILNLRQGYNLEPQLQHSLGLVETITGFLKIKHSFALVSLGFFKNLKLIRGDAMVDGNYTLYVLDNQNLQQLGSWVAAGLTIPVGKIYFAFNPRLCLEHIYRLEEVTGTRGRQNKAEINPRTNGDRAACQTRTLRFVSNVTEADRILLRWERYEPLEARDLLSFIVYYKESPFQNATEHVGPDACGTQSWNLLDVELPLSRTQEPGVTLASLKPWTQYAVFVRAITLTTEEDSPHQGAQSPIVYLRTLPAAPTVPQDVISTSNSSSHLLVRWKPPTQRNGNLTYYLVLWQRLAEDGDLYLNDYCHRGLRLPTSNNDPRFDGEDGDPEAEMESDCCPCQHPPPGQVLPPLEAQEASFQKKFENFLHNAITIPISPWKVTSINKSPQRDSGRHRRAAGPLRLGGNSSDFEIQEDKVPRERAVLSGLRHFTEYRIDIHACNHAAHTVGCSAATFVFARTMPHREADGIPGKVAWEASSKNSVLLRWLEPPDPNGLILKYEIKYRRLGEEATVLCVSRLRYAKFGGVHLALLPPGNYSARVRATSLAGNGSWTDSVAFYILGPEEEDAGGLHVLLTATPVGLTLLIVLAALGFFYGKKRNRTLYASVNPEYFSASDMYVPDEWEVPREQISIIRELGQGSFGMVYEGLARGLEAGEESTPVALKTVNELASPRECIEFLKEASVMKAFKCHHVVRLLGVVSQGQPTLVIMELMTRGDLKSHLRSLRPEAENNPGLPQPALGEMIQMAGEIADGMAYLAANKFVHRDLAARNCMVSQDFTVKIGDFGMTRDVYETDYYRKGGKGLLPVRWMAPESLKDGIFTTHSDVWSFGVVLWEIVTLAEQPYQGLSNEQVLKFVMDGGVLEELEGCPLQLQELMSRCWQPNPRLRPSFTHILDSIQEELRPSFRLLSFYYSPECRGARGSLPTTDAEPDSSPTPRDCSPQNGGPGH

[39] = HCC70, 72 h, read-out: 3-day antiproliferative IC50
[40] = HCC70, 168 h, read-out: 7-day antiproliferative IC50

| SMILES | remaining activity at 1 µM [1] | IC50 [2, 39] | IC50 [2, 40] | remaining activity at 1 µM [3] | remaining activity at 1 µM [4] | remaining activity at 1 µM [5] | remaining activity at 1 µM [7] | remaining activity at 1 µM [8] | remaining activity at 1 µM [9] | remaining activity at 1 µM [10] | IC50 [11] | remaining activity at 1 µM [12] | remaining activity at 1 µM [13] | % AR (% kinase activity remaining) [14] | remaining activity at 1 µM [15] | remaining activity at 1 µM [16] | remaining activity at 1 µM [17] | remaining activity at 1 µM [18] | remaining activity at 1 µM [19] | remaining activity at 1 µM [20] | other results |
| --- | --- | --- | --- | --- | --- | --- | --- | --- | --- | --- | --- | --- | --- | --- | --- | --- | --- | --- | --- | --- | --- |
| CN(C)C[C@H]1CC[C@H](N2C(=O)NCc3cnc4ccc(-c5cc(Cl)c(O)c(Cl)c5)cc4c32)CC1 [HTH-01-091, 9-(3,5-dichloro-4-hydroxyphenyl)-1-(trans-4-((dimethylamino)methyl)cyclohexyl)-3,4-dihydropyrimido[5,4 c]quinolin-2(1H)-one] | 80% | 8800 nM | 2430 nM | 53% | 76% | 102% | 85% | 63% | 79% | 8% | 962 nM | 62% | 85% | 34% | 62% | 95% | 84% | 81% | 2% | 18% | antiproliferative IC50 values, fold less potent than OTSSP167 [6]: at least 300 fold; IC50 ([10]; radioactive filter-binding assay provided by the ICKP, read-out: Enzymatic IC50 SmMLCK): 109 nM; remaining activity at 1 µM [21]: 92%; remaining activity at 1 µM [22]: 99%; remaining activity at 1 µM [23]: 100%; remaining activity at 1 µM [24]: 53%; remaining activity at 1 µM [25]: 73%; remaining activity at 1 µM [26]: 122%; remaining activity at 1 µM [27]: 97%; remaining activity at 1 µM [28]: 83%; remaining activity at 1 µM [29]: 105%; remaining activity at 1 µM [30]: 68%; remaining activity at 1 µM [31]: 95%; remaining activity at 1 µM [32]: 34%; remaining activity at 1 µM [33]: 96%; IC50 [34]: 10700 nM; remaining activity at 1 µM [35]: 35%; remaining activity at 1 µM [36]: 92%; remaining activity at 1 µM [37]: 77%; remaining activity at 1 µM [38]: 79% |
| CC(=O)c1cnc2ccc(-c3cc(Cl)c(O)c(Cl)c3)nc2c1N[C@H]1CC[C@H](CN(C)C)CC1 [OTSSP167] | 10% | 34 nM | 21 nM | 3% | 9% | 16% | 114% | 1% | 6% | 6% | 66.5 nM | 1% | 7% | 1% | 3% | 58% | 4% | 2% | 0% | 3% | IC50 ([6]; 72 h, most cell lines tested, read-out: half maximal killing): < 100 nM; remaining activity at 1 µM [21]: 4%; remaining activity at 1 µM [22]: 80%; remaining activity at 1 µM [23]: 83%; remaining activity at 1 µM [24]: 1%; remaining activity at 1 µM [25]: 19%; remaining activity at 1 µM [26]: 11%; remaining activity at 1 µM [27]: 31%; remaining activity at 1 µM [28]: 4%; remaining activity at 1 µM [29]: 4%; remaining activity at 1 µM [30]: 1%; remaining activity at 1 µM [31]: 51%; remaining activity at 1 µM [32]: 1%; remaining activity at 1 µM [33]: 19%; IC50 [34]: 33 nM; remaining activity at 1 µM [35]: 1%; remaining activity at 1 µM [36]: 4%; remaining activity at 1 µM [37]: 2%; remaining activity at 1 µM [38]: 6% |
